In the SangsterLogP compilation one finds logP data, which are given here for twelve compounds.

The nature of the series: method code SF, from DOI: 10.1007/bf00302523.
The compound `CCc1cc(OP(=O)(OC)OC)ccc1[N+](=O)[O-]` came in with a lipophilicity (logP) of 2.19.

Consider `COP(=S)(OC)Oc1cc(C)c([N+](=O)[O-])c(C)c1`, for which the logP was found to be 3.89.

`COP(=S)(OC)Oc1ccc([N+](=O)[O-])c(C)c1` came in with a log partition coefficient (logP) of 3.3.

`COP(=S)(OC)Oc1ccc([N+](=O)[O-])c(C(C)C)c1` had a logP of 4.05.

Compound `COP(=S)(OC)Oc1ccc([N+](=O)[O-])c(Cl)c1` gave a logP of 3.45.

For the compound `COP(=S)(OC)Oc1ccc([N+](=O)[O-])cc1Cl`, the lipophilicity (logP) came to 3.44.

On to `COP(=O)(OC)Oc1ccc([N+](=O)[O-])c(C(C)C)c1`, for which the lipophilicity (logP) was found to be 2.57.

In turn, `COP(=O)(OC)Oc1ccc([N+](=O)[O-])c(C)c1` had a logP of 1.69.

In the case of `COP(=O)(OC)Oc1ccc([N+](=O)[O-])cc1Cl`, the log partition coefficient (logP) was found to be 1.84.

The compound `CCc1cc(OP(=S)(OC)OC)ccc1[N+](=O)[O-]` registered a log partition coefficient (logP) of 3.74.

In the case of `COP(=O)(OC)Oc1cc(C)c([N+](=O)[O-])c(C)c1`, the log partition coefficient (logP) worked out at 2.26.

Compound `COP(=O)(OC)Oc1ccc([N+](=O)[O-])c(Cl)c1` registered a logP of 1.83.

What is called logP is a log measure of how a compound divides between an organic and an aqueous phase.
